Test results: BindingDB's records for doi:10.1021/jm00003a019 (Research Triangle Institute, 1995)

Experiment: Binding affinity at Sigma receptor type 1, displacement of [3H](+)-pentazocine from guinea pig brain membranes

SMILES | Ki
C[C@@H]1[C@@H]2Cc3ccc(O)cc3[C@@]1(C)CCN2Cc1ccc(Cl)cc1 [(2S,6S,11S)-3-(4-Chloro-benzyl)-6,11-dimethyl-1,2,3,4,5,6-hexahydro-2,6-methano-benzo[d]azocin-8-ol] | 2.37 nM
C[C@@H]1[C@@H]2Cc3ccc(O)cc3[C@@]1(C)CCN2Cc1ccc(C(F)(F)F)cc1 [(2S,6S,11S)-6,11-Dimethyl-3-(4-trifluoromethyl-benzyl)-1,2,3,4,5,6-hexahydro-2,6-methano-benzo[d]azocin-8-ol] | 20.5 nM
C[C@@H]1[C@@H]2Cc3ccc(O)cc3[C@@]1(C)CCN2Cc1ccc(N)cc1 [(2S,6S,11S)-3-(4-Amino-benzyl)-6,11-dimethyl-1,2,3,4,5,6-hexahydro-2,6-methano-benzo[d]azocin-8-ol] | 16.8 nM
C[C@@H]1[C@@H]2Cc3ccc(O)cc3[C@@]1(C)CCN2Cc1ccc(C(C)(C)C)cc1 [(2S,6S,11S)-3-(4-tert-Butyl-benzyl)-6,11-dimethyl-1,2,3,4,5,6-hexahydro-2,6-methano-benzo[d]azocin-8-ol] | 1070 nM
C[C@@H]1[C@@H]2Cc3ccc(O)cc3[C@@]1(C)CCN2Cc1ccc([N+](=O)[O-])cc1 [(2S,6S,11S)-6,11-Dimethyl-3-(4-nitro-benzyl)-1,2,3,4,5,6-hexahydro-2,6-methano-benzo[d]azocin-8-ol] | 2.19 nM
C[C@@H]1[C@@H]2Cc3ccc(O)cc3[C@@]1(C)CCN2Cc1ccc(I)cc1 [(2S,6S,11S)-3-(4-Iodo-benzyl)-6,11-dimethyl-1,2,3,4,5,6-hexahydro-2,6-methano-benzo[d]azocin-8-ol] | 16.5 nM
C[C@@H]1[C@@H]2Cc3ccc(O)cc3[C@@]1(C)CCN2Cc1ccc(I)c([N+](=O)[O-])c1 [(2S,6S,11S)-3-(4-Iodo-3-nitro-benzyl)-6,11-dimethyl-1,2,3,4,5,6-hexahydro-2,6-methano-benzo[d]azocin-8-ol] | 386 nM
C[C@@H]1[C@@H]2Cc3ccc(O)cc3[C@@]1(C)CCN2Cc1ccc(F)cc1 [(2S,6S,11S)-3-(4-Fluoro-benzyl)-6,11-dimethyl-1,2,3,4,5,6-hexahydro-2,6-methano-benzo[d]azocin-8-ol] | 0.97 nM
C[C@@H]1[C@@H]2Cc3ccc(O)cc3[C@@]1(C)CCN2Cc1ccccc1F [(2S,6S,11S)-3-(2-Fluoro-benzyl)-6,11-dimethyl-1,2,3,4,5,6-hexahydro-2,6-methano-benzo[d]azocin-8-ol] | 1.45 nM
COc1ccc(CN2CC[C@]3(C)c4cc(O)ccc4C[C@H]2[C@H]3C)cc1 [(2S,6S,11S)-3-(4-Methoxy-benzyl)-6,11-dimethyl-1,2,3,4,5,6-hexahydro-2,6-methano-benzo[d]azocin-8-ol] | 2.89 nM
C[C@@H]1[C@@H]2Cc3ccc(O)cc3[C@@]1(C)CCN2Cc1ccc(Br)cc1 [(2S,6S,11S)-3-(4-Bromo-benzyl)-6,11-dimethyl-1,2,3,4,5,6-hexahydro-2,6-methano-benzo[d]azocin-8-ol] | 3.11 nM
C[C@@H]1[C@@H]2Cc3ccc(O)cc3[C@@]1(C)CCN2Cc1cccc(I)c1 [(2S,6S,11S)-3-(3-Iodo-benzyl)-6,11-dimethyl-1,2,3,4,5,6-hexahydro-2,6-methano-benzo[d]azocin-8-ol] | 27.2 nM
C[C@@H]1[C@@H]2Cc3ccc(O)cc3[C@@]1(C)CCN2Cc1ccc(N(C)C)cc1 [(2S,6S,11S)-3-(4-Dimethylamino-benzyl)-6,11-dimethyl-1,2,3,4,5,6-hexahydro-2,6-methano-benzo[d]azocin-8-ol] | 102 nM
Cc1ccc(CN2CC[C@]3(C)c4cc(O)ccc4C[C@H]2[C@H]3C)cc1 [(2S,6S,11S)-6,11-Dimethyl-3-(4-methyl-benzyl)-1,2,3,4,5,6-hexahydro-2,6-methano-benzo[d]azocin-8-ol] | 2.08 nM
C[C@@H]1[C@@H]2Cc3ccc(O)cc3[C@@]1(C)CCN2Cc1ccccc1I [(2S,6S,11S)-3-(2-Iodo-benzyl)-6,11-dimethyl-1,2,3,4,5,6-hexahydro-2,6-methano-benzo[d]azocin-8-ol] | 930 nM
Cc1ccccc1CN1CC[C@]2(C)c3cc(O)ccc3C[C@H]1[C@H]2C [(2S,6S,11S)-6,11-Dimethyl-3-(2-methyl-benzyl)-1,2,3,4,5,6-hexahydro-2,6-methano-benzo[d]azocin-8-ol] | 12.8 nM
C[C@@H]1[C@@H]2Cc3ccc(O)cc3[C@@]1(C)CCN2Cc1ccc(C#N)cc1 [4-((2S,6S,11S)-8-Hydroxy-6,11-dimethyl-1,2,5,6-tetrahydro-4H-2,6-methano-benzo[d]azocin-3-ylmethyl)-benzonitrile] | 1.53 nM
CC(=O)Nc1ccc(CN2CC[C@]3(C)c4cc(O)ccc4C[C@H]2[C@H]3C)cc1 [N-[4-((2S,6S,11S)-8-Hydroxy-6,11-dimethyl-1,2,5,6-tetrahydro-4H-2,6-methano-benzo[d]azocin-3-ylmethyl)-phenyl]-acetamide] | 47 nM
